Read-outs that look alike come from different tables or passages of the source. Square brackets hold non-standard residues; d marks the D form. Peptide text beside a SMILES is read from it. * marks the point of attachment. Cyclohexanoyl(1S,3S-3-NH2) = N[C@H]1CCC[C@H](C(=O)*)C1; Trp(5-OH) = N[C@@H](Cc1c[nH]c2ccc(O)cc12)C(=O)O; NH(4-morpholinophenyl) = c1cc(N2CCOCC2)ccc1N*; Bip = N[C@@H](Cc1ccc(-c2ccccc2)cc1)C(=O)O; hArg = N=C(N)NCCCC[C@H](N)C(=O)O
How the values were obtained:
[1] = tested on: primary spinal cord motor neurons; assay: Growth cone collapse in primary spinal cord motor neurons; conditions: 1 μM and 10 μM 150D4, 2 DIV neurons
[2] = target: T1, EphA4-LBD and ephrinA5 (Homo sapiens, UniProt P54764, C204A); assay: ephrinA5 displacement by 2D [13C,1H] correlation NMR; type: binding; conditions: ^1H] correlation spectra
T1 construct: His tag (N); made in house; host or cells: E. coli Rosetta-Gami B(DE3) for EphA4-LBD; ephrin-A5 purchased from Sino Biological US Inc (catalogue number not given)
T1 sequence (P54764 29-209 C204A): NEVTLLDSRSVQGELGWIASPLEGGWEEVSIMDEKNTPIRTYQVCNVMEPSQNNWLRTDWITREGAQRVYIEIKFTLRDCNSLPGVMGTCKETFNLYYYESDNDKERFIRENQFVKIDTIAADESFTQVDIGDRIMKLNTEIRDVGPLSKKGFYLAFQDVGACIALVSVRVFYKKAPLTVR
Protocol: NMR spectra were acquired on Bruker Avance III 700 MHz spectrometer equipped with a TCI cryoprobe. All NMR data were processed and analyzed using TOPSPIN 3.6.1 (Bruker, Billerica, Mass., USA). 2D-[^13C,^1H]-HSQC experiments were acquired with 20 μM proteins using 8 scans with 2,048 and 256 complex data points in the ^1H and […] dimensions, respectively, at 298 K. For the 150D4 NMR titrations in FIG. 8 2D-[^13C,^1H]-HSQC experiments were acquired using 16 scans per increment, and for ephrinA5 binding studies (FIG. 8) with 10 μM protein, using 32 scans per increment.

[3] = target: T2, ^13C^ε-Met-labeled EphA4-LBD (Homo sapiens, UniProt P54764, C204A); assay: 2D [13C,1H] HSQC NMR chemical shift perturbation of Met resonances; type: binding
T2 construct: His tag (N); made in house; host or cells: E. coli Rosetta-Gami B(DE3), pET15b
T2 sequence (P54764 29-209 C204A): as above
Protocol: Peptides were synthesized by using standard solid-phase synthesis protocol, using the BAL resin as anchoring for the C-terminal amines. Isothermal Titration Calorimetry (ITC) measurements were performed in a reverse fashion by titrating the protein into the ligand solution. Solution nuclear magnetic resonance (NMR) experiments were conducted on a 700 MHz Bruker Avance spectrometer equipped with a TCI cryoprobe. […]
2D [^13C,^1H] correlation NMR spectra measured with such protein targets, collected in absence or presence of test ligands can be used to monitor ligand binding and make, albeit qualitative, determinations on possible conformational changes induced by test ligands on the protein target. […] In targeting EphA4, an important aspect regarding the activity of its ligands is whether these agents could be predicted to work as antagonists or agonists.
NMR spectra were acquired on Bruker Avance III 700 MHz spectrometer equipped with a TCI cryoprobe. All NMR data were processed and analyzed using TOPSPIN 3.6.1 (Bruker, Billerica, Mass., USA).
Chemical shift changes (A) in the 2D [^13C, ^1H] spectra were calculated as weight average perturbations observed in the ^1H and ^13C dimensions using the following Equation: […]

[4] = Aqueous solubility; type: physicochemical
[5] = tested on: mouse motor neurons co-cultured with iAstrocytes derived from sALS patients; assay: Co-culture of sALS patient derived iAstrocytes and motor neurons (motor neuron survival); type: cell-based; conditions: 10 μM
Text: EphA4 has been directly implicated in the progression of ALS in mice models and in human genetic studies. While the mechanisms for onset and progression of ALS remain largely undetermined, astrocytes have been implicated as significant contributors to motor neuron death in both in familial ALS (fALS), that is driven by inactivating mutations within the superoxide dismutase 1 (SOD1) gene and that account for less than 2% of all ALS cases, (Di Giorgio et al., Nat Neurosci, 10 (5): 608-614, (2007); Nagai et al., Nat Neurosci, 10 (5): 615-622, (2007); Yamanaka et al., Nat Neurosci, 11 (3): 251-253, (2008)) and the more common sporadic form of ALS (sALS). […] Recently, it was shown that astrocytes derived from both patient groups are similarly toxic to motor neurons (Haidet-Phillips et al., Nat Biotechnol, 29 (9): 824-828, (2011)).
Induced Astrocytes were generated by seeding a low quantity of NPCs into astrocyte medium (DMEM media containing 10% FBS and 0.2% N2) for five days. Following differentiation, iAstrocytes were lifted and seeded into a 96 well (10,000 cells per well).
Cells are sorted through a 100 micron tip with sheath pressure of 27. GFP+ motor neurons were seeded in a 96 well plate (10,000 cells per well). Co-cultures were imaged with InCell for up to three days. Motor neurons with neurite outgrowth of greater than 50 um were counted as alive.

[6] = In vivo pharmacokinetics and brain exposure; conditions: mice; for tissue level at time at 0.5 h / level at 0.5 h / tissue level at time at 24 h / level at 24 h / level at 1 h: mouse; for tissue level at time at 0.5 h / tissue level at time at 24 h: read-out: Amount of compound per mg of wet brain tissue
[7] = test ligands at 40 μM, EphA4-LDB at 20 μM, Table 8

N=C(N)NCCCC[C@H](NC(=O)[C@H](Cc1ccc(-c2ccccc2)cc1)NC(=O)[C@H](Cc1c[nH]c2ccc(O)cc12)NC(=O)[C@H]1CCC[C@H](N)C1)C(=O)NCC(=O)Nc1ccc(N2CCOCC2)cc1 [Compound 8, (1S,3S)—N—((S)-1-(((S)-3-([1,1′-biphenyl]-4-yl)-1-(((S)-6-guanidino-1-((2-((4-morpholinophenyl)amino)-2-oxoethyl)amino)-1-oxohexan-2-yl)amino)-1-oxopropan-2-yl)amino)-3-(5-hydroxy-1H-indol-3-yl)-1-oxopropan-2-yl)-3-aminocyclohexane-1-carboxamide] ({Cyclohexanoyl(1S,3S-3-NH2)}-[Trp(5-OH)][Bip][hArg]G-{NH(4-morpholinophenyl)})
growth cone collapse [1]: effective in inducing growth cone collapse
displacement of ephrinA5 binding to EphA4-LBD [2]: efficiently displaces the binding of ephrinA5
chemical shift perturbation of Met 115 (in words) [3]: no significant perturbations
chemical shift changes of Met 60 and Met 164 (in words) ([3]; FIG. 8B): large chemical shift changes
Δδ ^13C^ϵ/^1H^ϵ Met 164 ([3]; protein 20 μM, 20 μM of each compound): ++++ (++++ >0.25 ppm)
koff ([3]; read-out: estimated upper limit for the off rate for the complex koff): < 60 s⁻¹
Δδ Met 60 [3, 7]: ++ (0.1 ppm < ++ <0.2 ppm)
Δδ Met 115 [3, 7]: + (0< + <0.1 ppm)
Δδ Met 164 [3, 7]: ++++ (++++ >0.25 ppm)
Aqueous Solubility [4]: >50 mM
protection of motor neurons from sALS astrocytes-induced death [5]: able to protect mouse motor neurons from iAstrocytes derived from sALS patients
Total extracted brain compound ([6]; 10 mg/kg IV, 30 min): 205.6 ng
Total extracted brain compound ([6]; 10 mg/kg IV, 24 hr): 60 ng
Total extracted brain compound ([6]; 50 mg/Kg IP, 30 min): 185 ng
Total extracted brain compound ([6]; 50 mg/Kg IP, 24 hr): 34.7 ng
tissue level at time at 0.5 h ([6]; brain, 10 mg/kg IV, 30 min): 4730 ng/g
level at 0.5 h ([6]; brain, 10 mg/kg IV, 30 min, read-out: Brain concentration): 189 ng/mL
tissue level at time at 24 h ([6]; brain, 10 mg/kg IV, 24 hr): 1360 ng/g
level at 24 h ([6]; brain, 10 mg/kg IV, 24 hr, read-out: Brain concentration): 54 ng/mL
tissue level at time at 0.5 h ([6]; brain, 50 mg/Kg IP, 30 min): 4600 ng/g
level at 1 h ([6]; brain, 50 mg/Kg IP, read-out: Brain concentration): 184 ng/mL
tissue level at time at 24 h ([6]; brain, 50 mg/Kg IP, 24 hr): 1100 ng/g
level at 24 h ([6]; brain, 50 mg/Kg IP, 24 hr, read-out: Brain concentration): 45.5 ng/mL
level at 0.5 h ([6]; plasma, 10 mg/kg IV, 30 min, read-out: Plasma drug concentration): 484 ng/mL
level at 24 h ([6]; plasma, 10 mg/kg IV, 24 hr, read-out: Plasma drug concentration): 14.2 ng/mL
level at 1 h ([6]; plasma, 50 mg/Kg IP, read-out: Plasma drug concentration): 7740 ng/mL
level at 24 h ([6]; plasma, 50 mg/Kg IP, 24 hr, read-out: Plasma drug concentration): 45 ng/mL

From patent US20230203096A1, “EPHA4 TARGETING COMPOUNDS AND METHODS OF USE THEREOF” (priority 2020, published 2023)
